From patent US8501740B2, “Methods of treatment of opioid tolerance, physical dependence, pain and addiction with inhibitors of certain growth factor receptors” (priority 2007, dated 2013)
“Also recorded” adds a separate entry of the source.

Columns and labels:
rat = assay: Tail-flick latency (TFL) test of morphine analgesia and tolerance; format: in vivo; details: for Analgesic effect of the drug itself: administered alone, without morphine; for Development versus behavioral expression of morphine tolerance (tail flick latency): co-administered with morphine for several days, then morphine alone on the final day; for Reversal of established morphine tolerance: morphine given for varying periods, then drug added; for Effect on analgesic effect of morphine given subsequently: drug in 10% cyclodextrin vehicle for 4 days, morphine alone on day 5
Method: Analgesic effectiveness is typically studied using the tail-flick test, where a hot light is shined on a rat's tail and the time required for the rat to move (“flick”) its tail recorded (TFL, or tail flick latency).
To determine whether GLEEVEC® (imatinib) blocked the development or expression of tolerance, morphine and GLEEVEC® (imatinib) was co-administered for 4 days, and then on day 5 morphine alone was administered.
To determine whether IRESSA® (gefitinib) blocked the development or expression of tolerance, morphine and IRESSA® (gefitinib) was co-administered for 4 days, and then on day 5 morphine alone was administered.
(§1) A drug can inhibit the expression of narcotic tolerance if it is analgesic itself or if previous drug administration alters subsequent narcotic analgesia. To determine whether either of these possibilities were the case, animals were treated animals with either the cyclodextrin-based vehicle used to solubilize GLEEVEC® (imatinib) (10% CDSBE) or GLEEVEC® (imatinib) in vehicle for 4 days, and then on the fifth day were given morphine alone.
as §1, with “altered” for “alters subsequent”, “IRESSA® (gefitinib)” for “GLEEVEC® (imatinib)”, “CAPTISOL® (sulfobutylether-β-cyclodextrin))” for “CDSBE)”
Another possible explanation for apparent inhibition of opioid tolerance would be that GLEEVEC® (imatinib) or IRESSA® (gefitinib) could alter morphine pharmacokinetics, causing a different time course of analgesia with co-administration.
Next it was desirable to determine if GLEEVEC® (imatinib) could reverse morphine tolerance. NMDA antagonists, which are known to inhibit the development of morphine tolerance, can only partially reverse morphine tolerance, and cannot reverse established tolerance. In addition, NMDA antagonists are highly toxic (many are chemically related to PCP), which also severely limits their clinical use. To determine whether GLEEVEC® (imatinib) could reverse established morphine tolerance, morphine was given for varying periods of time, and then GLEEVEC® (imatinib) was added. […] On day 7, morphine alone was given to all groups.

[1] = test system: rats that have undergone sciatic nerve ligation; assay: Sciatic nerve ligation model of neuropathic pain, Von Frey hair testing; format: in vivo; details: for Effect upon allodynia / analgesia (Von Frey hairs): sciatic nerve ligation, alone or co-administered as labelled
Text: (§2) To test the methods of treatment presented herein, we use the sciatic nerve ligation model of Chung et al. (model of neuropathic pain). Chung, J. M., H. K. Kim, and K. Chung, Segmental Spinal Nerve Ligation Model Of Neuropathic Pain, Methods Mol Med, 2004. 99: p. 35-45. Animals undergo this ligation procedure, are allowed to recover, and tested for pain sensitivity using Von Frey hairs and/or pressure testing.
as §2, with “spinal nerve ligation model of neuropathic pain.” for “Spinal Nerve Ligation Model Of Neuropathic Pain,”

PDGFR-beta = PDGFR-beta tyrosine phosphorylation in cell lines (immunoprecipitation, Western blotting with PY-20); format: cell-based
Method: Cells were treated with morphine, gabapentin, morphine and gabapentin, or water for 40 minutes. Cells were then washed, lysed, and immunoprecipitation was performed using a PDGFR-beta antibody. Western blotting was then performed using PY-20 antibody, which detects tyrosine phosphorylation. Blots were then stripped and re-probed with PDGFR-beta antibody to control for the amount of PDGFR-beta loaded in each lane.

[2] = test system: alcohol dependent animals; details: cited from earlier work
[3] = test system: animals made physically dependent upon morphine; assay: Morphine physical dependence, naloxone-precipitated withdrawal; format: in vivo; details: morphine pellets, drug systemically twice daily
Text: Animals were pelleted with continuous release morphine pellets, and treated with GLEEVEC® (imatinib) systemically twice daily. Withdrawal was precipitated by injection of naloxone.

PDGF receptor = details: cited from earlier work

SMILES	Analgesic effect of the drug itself (rat)	Inhibition of tolerance when co-administered with morphine from the beginning (rat)	Development versus behavioral expression of morphine tolerance (tail flick latency) (rat)	Reversal of established morphine tolerance (rat)	Doses required to block behavioral expression of tolerance, relative to GLEEVEC (imatinib) (rat; rat, in vivo)	Number of doses to achieve peak effect ([1]; sciatic nerve ligation model)	Effect upon allodynia / analgesia (Von Frey hairs) [1]	Block of morphine-induced PDGFR-beta phosphorylation / PDGFR activation (PDGFR-beta; co-administration with morphine, 40 minutes)	Alcohol intake and self-administration ([2]; alcohol dependent animals)	Anxiogenic effects of alcohol withdrawal ([2]; alcohol dependent rats)	Time of peak analgesic effect (rat; time course on 4 consecutive days)	Increase in PDGFR-beta phosphorylation (PDGFR-beta; cells treated for 40 minutes)	Effect on analgesic effect of morphine given subsequently (rat)	Inhibition of morphine tolerance (rat; spinally administered, initial studies)	Weight loss in precipitated withdrawal [3]	Withdrawal behaviors in precipitated withdrawal [3]	Inhibition of receptor tyrosine kinase activity of the PDGF receptor (PDGF receptor)
NCC1(CC(=O)O)CCCCC1 [gabapentin]	not analgesic itself	blocks tolerance	blocks the behavioral expression of tolerance	reverses established tolerance	10 to 100 fold higher	takes several doses to achieve its peak effect	does not cause complete analgesia	blocked by co-administration of gabapentin	reduce alcohol intake and self-administration	reversing anxiogenic effects of alcohol withdrawal	–	–	–	–	–	–	–
CN1CC[C@]23c4c5ccc(O)c4O[C@H]2[C@@H](O)C=C[C@H]3[C@H]1C5 [morphine]	–	–	–	–	–	–	neither morphine nor IRESSA® (gefitinib) alone have analgesic properties; also recorded: neither morphine nor GLEEVEC® (imatinib) alone have analgesic properties; also recorded: had no effect upon allodynia	–	–	–	30 min	40%	–	–	–	–	–
COc1cc2ncnc(Nc3ccc(F)c(Cl)c3)c2cc1OCCCN1CCOCC1 [IRESSA® (gefitinib), gefitinib]	do not exhibit analgesic effects; also recorded: neither IRESSA® (gefitinib) nor vehicle was analgesic when administered alone	–	inhibits the development, not the behavioral expression of opioid tolerance; also recorded: inhibited the development of morphine tolerance	–	–	–	neither morphine nor IRESSA® (gefitinib) alone have analgesic properties; also recorded: had no effect upon allodynia	–	–	–	–	–	do not exhibit analgesic effects, or interfere with the analgesic effects of morphine; also recorded: did not alter the analgesic effect of morphine given on day 5	–	–	–	–
Cc1ccc(NC(=O)c2ccc(CN3CCN(C)CC3)cc2)cc1Nc1nccc(-c2cccnc2)n1 [GLEEVEC® (imatinib), imatinib]	do not exhibit analgesic effects; also recorded: neither GLEEVEC® (imatinib) nor vehicle was analgesic when administered alone; also recorded: no analgesic effect at any time point	inhibited tolerance	inhibits the behavioral expression, not the development of opioid tolerance; also recorded: blocked the behavioral expression of morphine tolerance; also recorded: inhibited the expression of tolerance alone	completely reverses and inhibits the behavioral expression of tolerance; also recorded: completely reversed tolerance	–	–	neither morphine nor GLEEVEC® (imatinib) alone have analgesic properties; also recorded: had no effect upon allodynia	–	–	–	–	–	do not exhibit analgesic effects, or interfere with the analgesic effects of morphine; also recorded: did not alter the analgesic effect of morphine given subsequently on day 5	inhibited morphine tolerance	without affecting weight loss; also recorded: Weight loss was not affected	reduces the behavioral expression of paw shakes and wet dog shakes; also recorded: withdrawal behaviors such as teeth chattering and wet dog shakes were reduced	inhibit the receptor tyrosine kinase activity of the PDGF receptor
